Legend:
[1] = target: T1, Ephrin type-A receptor 8 (Homo sapiens) (UniProt P29322); assay: Inhibition of human recombinant EphA8 at 500 nM related to control ULK1
T1 sequence (whole entry): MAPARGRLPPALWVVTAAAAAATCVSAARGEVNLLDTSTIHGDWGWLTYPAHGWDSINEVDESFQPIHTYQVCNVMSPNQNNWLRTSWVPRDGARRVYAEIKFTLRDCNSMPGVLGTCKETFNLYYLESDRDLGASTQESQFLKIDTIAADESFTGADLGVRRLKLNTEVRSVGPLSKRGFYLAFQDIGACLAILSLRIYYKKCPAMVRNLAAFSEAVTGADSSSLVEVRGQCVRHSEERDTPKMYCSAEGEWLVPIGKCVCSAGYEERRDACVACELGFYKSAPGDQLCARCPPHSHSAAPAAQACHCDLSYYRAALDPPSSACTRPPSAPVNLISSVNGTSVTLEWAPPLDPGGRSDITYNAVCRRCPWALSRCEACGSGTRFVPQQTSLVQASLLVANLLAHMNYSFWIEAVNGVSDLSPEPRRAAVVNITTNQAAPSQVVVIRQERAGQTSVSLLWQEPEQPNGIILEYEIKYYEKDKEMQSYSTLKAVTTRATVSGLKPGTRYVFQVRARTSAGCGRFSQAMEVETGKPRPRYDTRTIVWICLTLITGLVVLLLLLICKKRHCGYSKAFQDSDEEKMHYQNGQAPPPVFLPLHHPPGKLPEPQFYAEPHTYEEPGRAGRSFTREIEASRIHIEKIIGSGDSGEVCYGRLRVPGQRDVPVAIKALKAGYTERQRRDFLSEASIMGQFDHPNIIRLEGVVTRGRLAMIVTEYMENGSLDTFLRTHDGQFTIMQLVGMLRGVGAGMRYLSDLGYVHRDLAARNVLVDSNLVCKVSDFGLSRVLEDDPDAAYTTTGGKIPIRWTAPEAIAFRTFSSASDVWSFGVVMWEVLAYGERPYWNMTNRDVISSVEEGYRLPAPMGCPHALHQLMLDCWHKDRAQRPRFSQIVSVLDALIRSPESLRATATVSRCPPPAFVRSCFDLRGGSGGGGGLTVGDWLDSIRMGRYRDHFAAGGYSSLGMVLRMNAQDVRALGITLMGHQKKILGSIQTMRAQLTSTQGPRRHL

[2] = target: T2, Serine/threonine-protein kinase ULK2 (Homo sapiens) (UniProt Q8IYT8); assay: Inhibition of human recombinant ULK2 at 15 nM in presence of ATP by radiometric assay relative to control
T2 sequence (whole entry): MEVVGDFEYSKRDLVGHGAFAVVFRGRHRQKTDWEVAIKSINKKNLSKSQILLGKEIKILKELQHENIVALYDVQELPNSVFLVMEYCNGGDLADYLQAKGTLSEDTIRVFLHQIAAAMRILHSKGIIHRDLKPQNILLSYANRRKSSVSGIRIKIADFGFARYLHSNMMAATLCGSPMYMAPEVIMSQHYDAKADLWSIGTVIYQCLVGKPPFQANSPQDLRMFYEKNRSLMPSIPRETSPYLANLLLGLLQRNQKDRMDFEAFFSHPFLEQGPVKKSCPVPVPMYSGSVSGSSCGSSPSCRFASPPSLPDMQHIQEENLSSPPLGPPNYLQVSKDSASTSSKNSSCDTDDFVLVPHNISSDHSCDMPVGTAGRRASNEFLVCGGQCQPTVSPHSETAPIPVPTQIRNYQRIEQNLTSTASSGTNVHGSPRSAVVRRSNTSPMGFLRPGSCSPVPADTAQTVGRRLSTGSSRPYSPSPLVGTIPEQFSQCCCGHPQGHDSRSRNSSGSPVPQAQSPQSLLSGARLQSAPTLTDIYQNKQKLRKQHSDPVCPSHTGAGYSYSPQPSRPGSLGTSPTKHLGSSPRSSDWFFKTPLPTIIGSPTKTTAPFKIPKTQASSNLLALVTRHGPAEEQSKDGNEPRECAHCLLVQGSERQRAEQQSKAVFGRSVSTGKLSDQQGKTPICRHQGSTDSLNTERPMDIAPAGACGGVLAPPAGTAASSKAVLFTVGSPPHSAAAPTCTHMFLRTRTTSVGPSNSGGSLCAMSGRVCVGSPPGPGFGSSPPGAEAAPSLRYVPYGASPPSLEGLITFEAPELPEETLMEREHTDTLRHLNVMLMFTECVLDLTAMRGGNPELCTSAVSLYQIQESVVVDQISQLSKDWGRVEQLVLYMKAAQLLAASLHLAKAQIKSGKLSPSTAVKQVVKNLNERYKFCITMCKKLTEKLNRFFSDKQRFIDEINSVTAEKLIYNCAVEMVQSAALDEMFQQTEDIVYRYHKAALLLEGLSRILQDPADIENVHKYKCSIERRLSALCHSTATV

[3] = target: Dual specificity mitogen-activated protein kinase kinase 1 (Homo sapiens) (UniProt Q02750); assay: Inhibition of human recombinant MAP2K1 at 15 nM in presence of ATP by radiometric assay relative to control
[4] = target: Serine/threonine-protein kinase Nek7 (Homo sapiens) (UniProt Q8TDX7); assay: Inhibition of human recombinant NEK7 at 40 nM in presence of ATP by radiometric assay relative to control
[5] = target: T3, Receptor-interacting serine/threonine-protein kinase 1 (Homo sapiens) (UniProt Q13546); assay: Inhibition of human recombinant RIPK1 at 40 nM in presence of ATP by radiometric assay relative to control
T3 sequence (whole entry): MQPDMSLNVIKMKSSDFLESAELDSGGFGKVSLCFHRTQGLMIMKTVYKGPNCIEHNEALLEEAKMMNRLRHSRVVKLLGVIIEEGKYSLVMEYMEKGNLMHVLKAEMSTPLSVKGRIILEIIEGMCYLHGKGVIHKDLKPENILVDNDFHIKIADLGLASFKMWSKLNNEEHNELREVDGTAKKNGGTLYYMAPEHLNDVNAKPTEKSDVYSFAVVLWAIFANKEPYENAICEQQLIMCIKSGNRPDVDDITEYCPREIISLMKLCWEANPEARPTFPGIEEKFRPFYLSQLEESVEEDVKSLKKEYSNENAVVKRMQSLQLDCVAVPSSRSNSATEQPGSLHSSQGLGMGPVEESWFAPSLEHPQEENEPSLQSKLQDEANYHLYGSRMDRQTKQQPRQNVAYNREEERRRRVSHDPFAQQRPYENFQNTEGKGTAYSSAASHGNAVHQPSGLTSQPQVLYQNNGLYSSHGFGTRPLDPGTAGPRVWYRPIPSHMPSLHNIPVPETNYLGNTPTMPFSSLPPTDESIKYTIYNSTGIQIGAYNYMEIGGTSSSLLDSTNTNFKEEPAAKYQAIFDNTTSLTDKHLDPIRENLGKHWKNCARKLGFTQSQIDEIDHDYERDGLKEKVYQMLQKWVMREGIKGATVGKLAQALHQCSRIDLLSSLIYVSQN

[6] = target: Tyrosine-protein kinase SYK (Homo sapiens) (UniProt P43405); assay: Inhibition of human recombinant SYK at 40 nM in presence of ATP by radiometric assay relative to control

Serine/threonine-protein kinase Nek7 (Homo sapiens), sequence (Q8TDX7 whole entry, looked up): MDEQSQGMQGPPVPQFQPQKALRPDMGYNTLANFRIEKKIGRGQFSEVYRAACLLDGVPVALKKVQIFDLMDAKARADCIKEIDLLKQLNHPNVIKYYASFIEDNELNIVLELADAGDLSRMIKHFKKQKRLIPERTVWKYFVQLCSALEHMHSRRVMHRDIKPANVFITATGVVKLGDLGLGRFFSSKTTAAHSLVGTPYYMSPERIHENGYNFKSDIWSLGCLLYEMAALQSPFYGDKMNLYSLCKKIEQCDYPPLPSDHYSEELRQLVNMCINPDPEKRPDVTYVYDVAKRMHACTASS
Dual specificity mitogen-activated protein kinase kinase 1 (Homo sapiens), sequence (Q02750 whole entry): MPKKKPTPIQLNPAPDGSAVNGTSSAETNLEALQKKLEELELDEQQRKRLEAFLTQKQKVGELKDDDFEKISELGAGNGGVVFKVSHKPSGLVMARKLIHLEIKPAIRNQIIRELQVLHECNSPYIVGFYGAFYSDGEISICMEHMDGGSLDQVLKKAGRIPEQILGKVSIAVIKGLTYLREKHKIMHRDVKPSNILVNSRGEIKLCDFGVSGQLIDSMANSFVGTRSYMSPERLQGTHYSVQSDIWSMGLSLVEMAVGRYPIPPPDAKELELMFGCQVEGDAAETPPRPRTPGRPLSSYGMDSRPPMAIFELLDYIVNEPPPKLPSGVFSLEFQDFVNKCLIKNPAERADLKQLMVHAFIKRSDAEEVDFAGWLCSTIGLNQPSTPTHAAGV

CNC(=O)c1ccccc1Oc1nc(Nc2cc(OC)c(OC)c(OC)c2)ncc1Br
fold change (FC) [1]: 0.03

CC(C)[C@H](NC(=O)c1cc(-c2cnn3cc(-c4ccc(OCCN5CCCCC5)cc4)cnc23)cs1)C(F)(F)F
inhibition [2]: 73% | inhibition [3]: 7%

O=C(N[C@@H](C1CC1)C(F)(F)F)c1cc(-c2cnn3cc(-c4ccc(F)cc4)cnc23)cs1
inhibition [4]: 0% | inhibition [5]: 2% | inhibition [6]: 0%

— ChEMBL document CHEMBL5653631, “A Potent and Selective ULK1 Inhibitor Suppresses Autophagy and Sensitizes Cancer Cells to Nutrient Stress” (iScience, 2018)
